Measured values published in patent US4508719A, “Hydroxyimino and alkoxyimino derivatives of 1,4-dihydropyridine and anti-hypertensive compositions” (Pierrel S.p.A., priority 1982, dated 1985).
Like-named read-outs stand apart in the source and are kept apart here.

Experiments:
in vivo = conditions: mouse, iv
Procedure: Male CD1 mice from Charles River, weighing 25 g, are used. Compounds are administered intravenously (i.v.), dissolved in dimethylsulfoxide, and the volume of administration is 0.01 ml/10 g of body weight. The lethal dose, LD50 after seven days, is calculated according to the method of Litchfield and Wilcoxon (Exp. Ther. 96, 99 (1949)).

[1] = test system: taenia coli of guinea pigs, depolarized, stimulated with CaCl2; test: Antagonistic activity to calcium in the taenia coli of guinea pigs (in vitro); type: cell-based, Hartley albino guinea pigs; conditions: for IC50: Cavia porcellus, read-out: Ca--antagonistic activity in vitro ED50
Procedure: Hartley albino guinea pigs of average weight 450 g are used. […] The compounds are allowed to stand in contact with the preparation for ten minutes. The activities ED50 are calculated from the maximum percentage of inhibition.

[2] = taenia coli, CaCl2 10^-3 M, ten minutes contact, from maximum percentage of inhibition (for 0265B, 0246B, 0247B, 0270B, 0224A independent of time of appearance)

SMILES	LD50 at 168 h (in vivo)	IC50 [1, 2]	inhibition of contractions due to CaCl2 after repeated washing of the tissue ([1]; taenia coli)	IC50 [1]
COC(=O)C1=C(C)NC(C)=C(C(C)=NOCCN(C)Cc2ccccc2)C1c1cccc([N+](=O)[O-])c1 (centres unmarked) [0224A, Methyl 2,6-dimethyl-3-[1-(2-N-benzyl-N-methylamino)ethoxy-imino]ethyl-4-(3-nitrophenyl)-1,4-dihydropyridin-5-carboxylate]	3.3 mg/kg	18 nM	increases progressively in spite of repeated washing of the tissue	–
COC(=O)C1=C(C)NC(C)=C(C(C)=NO)C1c1cccc([N+](=O)[O-])c1 (centres unmarked) [0227A, Methyl 2,6-dimethyl-3-(1-hydroxyimino)ethyl-4-(3-nitrophenyl)-1,4-dihydropyridine-5-carboxylate]	15.2 mg/kg	270 nM	–	–
CCOC(=O)CON=C(C)C1=C(C)NC(C)=C(C(=O)OC)C1c1cccc([N+](=O)[O-])c1 (centres unmarked) [0234A, Methyl 2,6-dimethyl-3-[1-(ethoxycarbonyl)methoxyimino]ethyl-4-(3-nitrophenyl)-1,4-dihydro-pyridin-5-carboxylate]	17.3 mg/kg	29 nM	–	–
CCON=C(C)C1=C(C)NC(C)=C(C(=O)OC)C1c1cccc([N+](=O)[O-])c1 (centres unmarked) [0235A, Methyl 2,6-dimethyl-3-(1-ethoxyimino)ethyl-4-(3-nitrophenyl)-1,4-dihydropyridin-5-carboxylate]	30.6 mg/kg	7.4 nM	–	–
C=CCON=C(C)C1=C(C)NC(C)=C(C(=O)OC)C1c1cccc([N+](=O)[O-])c1 (centres unmarked) [0245B]	35.4 mg/kg	4.7 nM	–	–
CCCCON=C(C)C1=C(C)NC(C)=C(C(=O)OC)C1c1cccc([N+](=O)[O-])c1 (centres unmarked) [0246B]	37.5 mg/kg	7 nM	increases progressively in spite of repeated washing of the tissue	–
COC(=O)C1=C(C)NC(C)=C(C(C)=NOCc2ccccc2)C1c1cccc([N+](=O)[O-])c1 (centres unmarked) [0247B]	28.9 mg/kg	4.8 nM	increases progressively in spite of repeated washing of the tissue	–
CON=C(C)C1=C(C)NC(C)=C(C(=O)OC)C1c1cccc([N+](=O)[O-])c1 (centres unmarked) [0251A, Methyl 2,6-dimethyl-3-(1-methoxyimino)ethyl-4-(3-nitrophenyl)-1,4-dihydropyridin-5-carboxylate]	27.3 mg/kg	26 nM	–	–
CCOCCON=C(C)C1=C(C)NC(C)=C(C(=O)OC)C1c1cccc([N+](=O)[O-])c1 (centres unmarked) [0254B]	35 mg/kg	5.9 nM	–	–
COC(=O)C1=C(C)NC(C)=C(C(C)=NOC(C)C)C1c1cccc([N+](=O)[O-])c1 (centres unmarked) [0265B]	27.6 mg/kg	4.4 nM	increases progressively in spite of repeated washing of the tissue	–
COC(=O)C1=C(C)NC(C)=C(C(C)=NOC2CCCC2)C1c1cccc([N+](=O)[O-])c1 (centres unmarked) [0270B]	70.3 mg/kg	5.6 nM	increases progressively in spite of repeated washing of the tissue	–
COC(=O)C1=C(C)NC(C)=C(C(C)=NOCCN(C)C)C1c1cccc([N+](=O)[O-])c1 (centres unmarked) [0274B]	38.3 mg/kg	510 nM	–	–
COC(=O)C1=C(C)NC(C)=C(C(C)=NOCCN2CCCCC2)C1c1cccc([N+](=O)[O-])c1 (centres unmarked) [0276B]	22.7 mg/kg	220 nM	–	–
CCOCCON=C(COC)C1=C(C)NC(C)=C(C(=O)OC)C1c1cccc([N+](=O)[O-])c1 (centres unmarked) [0286C]	> 160 mg/kg	370 nM	–	–
COC(=O)C1=C(C)NC(C)=C(C(=O)OCCN(C)Cc2ccccc2)C1c1cccc([N+](=O)[O-])c1 (centres unmarked) [Nicardipine, reference compound]	17.4 mg/kg	2.3 nM	–	–
COC(=O)C1=C(C)NC(C)=C(C(=O)OC)C1c1ccccc1[N+](=O)[O-] [Nifedipine, reference compound]	–	–	–	2.6 nM
CCOC(=O)C1=C(C)NC(C)=C(C(=O)OC)C1c1cccc([N+](=O)[O-])c1 (centres unmarked) [Nitrendipine, reference compound]	34.5 mg/kg	1.9 nM	–	–
